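Assay format: 96-well plates, 48-hour exposure. GI50 is the concentration that inhibits growth by half. TGI: total growth inhibition.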
Key:
Assay in all cases: NCI-60 cell line screen, 48 h
SNB-19 CNS = test system: SNB-19 CNS
SN12C renal = test system: SN12C renal
CCRF-CEM leukemia = test system: CCRF-CEM leukemia
MDA-MB-435 = test system: MDA-MB-435
U251 CNS = test system: U251 CNS
SR leukemia = test system: SR leukemia
TK-10 renal = test system: TK-10 renal
M14 melanoma = test system: M14 melanoma
SK-OV-3 ovarian = test system: SK-OV-3 ovarian
OVCAR-8 ovarian = test system: OVCAR-8 ovarian
MDA-MB-231 breast = test system: MDA-MB-231 breast
UO-31 renal = test system: UO-31 renal
SK-MEL-5 melanoma = test system: SK-MEL-5 melanoma
DU-145 prostate = test system: DU-145 prostate
IGROV1 ovarian = test system: IGROV1 ovarian
SF-268 CNS = test system: SF-268 CNS
SK-MEL-28 melanoma = test system: SK-MEL-28 melanoma
UACC-62 melanoma = test system: UACC-62 melanoma
HL-60(TB) leukemia = test system: HL-60(TB) leukemia
NCI-H226 lung = test system: NCI-H226 lung
SK-MEL-2 melanoma = test system: SK-MEL-2 melanoma
MOLT-4 leukemia = test system: MOLT-4 leukemia
ACHN renal = test system: ACHN renal
786-0 renal = test system: 786-0 renal
HCC-2998 colon = test system: HCC-2998 colon
RPMI-8226 leukemia = test system: RPMI-8226 leukemia
KM12 colon = test system: KM12 colon
SF-539 CNS = test system: SF-539 CNS
HT29 colon = test system: HT29 colon
EKVX NSCLC = test system: EKVX NSCLC
T-47D breast = test system: T-47D breast
NCI-H522 lung = test system: NCI-H522 lung
HS 578T breast = test system: HS 578T breast
PC-3 prostate = test system: PC-3 prostate
OVCAR-4 ovarian = test system: OVCAR-4 ovarian
MCF7 breast = test system: MCF7 breast
NCI/ADR-RES ovarian = test system: NCI/ADR-RES ovarian
OVCAR-5 ovarian = test system: OVCAR-5 ovarian
CAKI-1 renal = test system: CAKI-1 renal
SF-295 CNS = test system: SF-295 CNS
BT-549 breast = test system: BT-549 breast
COLO 205 colon = test system: COLO 205 colon
OVCAR-3 ovarian = test system: OVCAR-3 ovarian
NCI-H23 lung = test system: NCI-H23 lung
SNB-75 CNS = test system: SNB-75 CNS
NCI-H460 lung = test system: NCI-H460 lung
K-562 leukemia = test system: K-562 leukemia
HCT-15 colon = test system: HCT-15 colon
SW-620 colon = test system: SW-620 colon
LOX IMVI melanoma = test system: LOX IMVI melanoma
A498 renal = test system: A498 renal
UACC-257 melanoma = test system: UACC-257 melanoma
MALME-3M melanoma = test system: MALME-3M melanoma
RXF 393 renal = test system: RXF 393 renal
HOP-62 NSCLC = test system: HOP-62 NSCLC
A549 NSCLC = test system: A549 NSCLC
HCT-116 colon = test system: HCT-116 colon

Compound: COc1cc(Oc2cnc3cc(N)cc(N)c3n2)cc(OC)c1OC
- GI50 (SNB-19 CNS): > 100 µM
- TGI (SNB-19 CNS): > 100 µM
- GI50 (SN12C renal): 71.2 µM
- TGI (SN12C renal): > 100 µM
- GI50 (CCRF-CEM leukemia): 50.7 µM
- TGI (CCRF-CEM leukemia): > 100 µM
- GI50 (MDA-MB-435): 24.3 µM
- TGI (MDA-MB-435): 59.1 µM
- GI50 (U251 CNS): > 100 µM
- TGI (U251 CNS): > 100 µM
- GI50 (SR leukemia): 14 µM
- TGI (SR leukemia): 37.2 µM
- GI50 (TK-10 renal): 33.3 µM
- TGI (TK-10 renal): > 100 µM
- GI50 (M14 melanoma): 22.7 µM
- TGI (M14 melanoma): 76.2 µM
- GI50 (SK-OV-3 ovarian): 91.2 µM
- TGI (SK-OV-3 ovarian): > 100 µM
- GI50 (OVCAR-8 ovarian): 58.8 µM
- TGI (OVCAR-8 ovarian): > 100 µM
- GI50 (MDA-MB-231 breast): 29.4 µM
- TGI (MDA-MB-231 breast): 95.8 µM
- GI50 (UO-31 renal): 35 µM
- TGI (UO-31 renal): > 100 µM
- GI50 (SK-MEL-5 melanoma): 39.5 µM
- TGI (SK-MEL-5 melanoma): > 100 µM
- GI50 (DU-145 prostate): 62.3 µM
- TGI (DU-145 prostate): > 100 µM
- GI50 (IGROV1 ovarian): 32.8 µM
- TGI (IGROV1 ovarian): > 100 µM
- GI50 (SF-268 CNS): 67.3 µM
- TGI (SF-268 CNS): > 100 µM
- GI50 (SK-MEL-28 melanoma): 36.6 µM
- TGI (SK-MEL-28 melanoma): > 100 µM
- GI50 (UACC-62 melanoma): 35.4 µM
- TGI (UACC-62 melanoma): > 100 µM
- GI50 (HL-60(TB) leukemia): 21.9 µM
- TGI (HL-60(TB) leukemia): 45 µM
- GI50 (NCI-H226 lung): 45.6 µM
- TGI (NCI-H226 lung): > 100 µM
- GI50 (SK-MEL-2 melanoma): > 100 µM
- TGI (SK-MEL-2 melanoma): > 100 µM
- GI50 (MOLT-4 leukemia): 20.2 µM
- TGI (MOLT-4 leukemia): 51.9 µM
- GI50 (ACHN renal): 24.3 µM
- TGI (ACHN renal): 63.4 µM
- GI50 (786-0 renal): 33 µM
- TGI (786-0 renal): > 100 µM
- GI50 (HCC-2998 colon): 15.6 µM
- TGI (HCC-2998 colon): 32.2 µM
- GI50 (RPMI-8226 leukemia): 21.9 µM
- TGI (RPMI-8226 leukemia): 45 µM
- GI50 (KM12 colon): 24.9 µM
- TGI (KM12 colon): > 100 µM
- GI50 (SF-539 CNS): 46.2 µM
- TGI (SF-539 CNS): > 100 µM
- GI50 (HT29 colon): 18.5 µM
- TGI (HT29 colon): 40.4 µM
- GI50 (EKVX NSCLC): 61.4 µM
- TGI (EKVX NSCLC): > 100 µM
- GI50 (T-47D breast): 33.5 µM
- TGI (T-47D breast): > 100 µM
- GI50 (NCI-H522 lung): > 100 µM
- TGI (NCI-H522 lung): > 100 µM
- GI50 (HS 578T breast): 37.9 µM
- TGI (HS 578T breast): > 100 µM
- GI50 (PC-3 prostate): 32.4 µM
- TGI (PC-3 prostate): > 100 µM
- GI50 (OVCAR-4 ovarian): 37.3 µM
- TGI (OVCAR-4 ovarian): > 100 µM
- GI50 (MCF7 breast): 35.4 µM
- TGI (MCF7 breast): > 100 µM
- GI50 (NCI/ADR-RES ovarian): 30.6 µM
- TGI (NCI/ADR-RES ovarian): > 100 µM
- GI50 (OVCAR-5 ovarian): 23 µM
- TGI (OVCAR-5 ovarian): 62.6 µM
- GI50 (CAKI-1 renal): 38.2 µM
- TGI (CAKI-1 renal): > 100 µM
- GI50 (SF-295 CNS): 74.4 µM
- TGI (SF-295 CNS): > 100 µM
- GI50 (BT-549 breast): 43.5 µM
- TGI (BT-549 breast): > 100 µM
- GI50 (COLO 205 colon): 27.8 µM
- TGI (COLO 205 colon): 71.6 µM
- GI50 (OVCAR-3 ovarian): 26.8 µM
- TGI (OVCAR-3 ovarian): > 100 µM
- GI50 (NCI-H23 lung): 31.4 µM
- TGI (NCI-H23 lung): > 100 µM
- GI50 (SNB-75 CNS): 19.2 µM
- TGI (SNB-75 CNS): 72.4 µM
- GI50 (NCI-H460 lung): 52 µM
- TGI (NCI-H460 lung): > 100 µM
- GI50 (K-562 leukemia): 38.1 µM
- TGI (K-562 leukemia): > 100 µM
- GI50 (HCT-15 colon): 50 µM
- TGI (HCT-15 colon): > 100 µM
- GI50 (SW-620 colon): 44.3 µM
- TGI (SW-620 colon): > 100 µM
- GI50 (LOX IMVI melanoma): 33.4 µM
- TGI (LOX IMVI melanoma): > 100 µM
- GI50 (A498 renal): 65.1 µM
- TGI (A498 renal): > 100 µM
- GI50 (UACC-257 melanoma): > 100 µM
- TGI (UACC-257 melanoma): > 100 µM
- GI50 (MALME-3M melanoma): 59.9 µM
- TGI (MALME-3M melanoma): > 100 µM
- GI50 (RXF 393 renal): 25.4 µM
- TGI (RXF 393 renal): 89.8 µM
- GI50 (HOP-62 NSCLC): 48.1 µM
- TGI (HOP-62 NSCLC): > 100 µM
- GI50 (A549 NSCLC): > 100 µM
- TGI (A549 NSCLC): > 100 µM
- GI50 (HCT-116 colon): 19.6 µM
- TGI (HCT-116 colon): 42.8 µM
